Source: patent US20230227449A1, “AMIDOPYRIMIDONE DERIVATIVES” (Hoffmann-La Roche Inc., priority 2020, published 2023)
pIC50: −log10 of the molar value.

Molecular target: Recombinant human Mat2a (Homo sapiens, UniProt P31153)
Experiment: Determination of Mat2A activity (384 well absorbance-based assay, Biomol Green)
Type: biochemical
Details: 12.5 nM Mat2A, 100 μM ATP and Methionine, 2% DMSO, 120 minutes at RT, absorbance at 635 nm
Experimental: Determination of Mat2A activity
Measurement of Mat2A inhibition is performed in 384 well format absorbance-based assay. Recombinant human Mat2a (12.5 nM) and serial diluted compounds in DMSO (range of concentrations from […] to 508 pM) or controls (DMSO) are incubated for 15 minutes at room temperature (RT) in assay buffer containing 50 mM HEPES pH 7.5, 50 mM KCl, 50 mM MgCl2, 0.01% Tween 20 and 10 mM DTT. The reaction is initiated by the addition of the combined substrates ATP and Methionine, each at a final concentration of 100 μM. Final assay condition are 12.5 nM Mat2A, 100 μM ATP and Methionine Substrates and 2% DMSO. After 120 minutes of incubation at RT, the reaction is stopped by the addition of Biomol Green. The absorbance signal is measured at λ=635 nm with a multiplate reader (BMG Pherastar reader or equivalent) after 30 min of equilibration at RT.

Sequence of Recombinant human Mat2a (P31153 whole entry): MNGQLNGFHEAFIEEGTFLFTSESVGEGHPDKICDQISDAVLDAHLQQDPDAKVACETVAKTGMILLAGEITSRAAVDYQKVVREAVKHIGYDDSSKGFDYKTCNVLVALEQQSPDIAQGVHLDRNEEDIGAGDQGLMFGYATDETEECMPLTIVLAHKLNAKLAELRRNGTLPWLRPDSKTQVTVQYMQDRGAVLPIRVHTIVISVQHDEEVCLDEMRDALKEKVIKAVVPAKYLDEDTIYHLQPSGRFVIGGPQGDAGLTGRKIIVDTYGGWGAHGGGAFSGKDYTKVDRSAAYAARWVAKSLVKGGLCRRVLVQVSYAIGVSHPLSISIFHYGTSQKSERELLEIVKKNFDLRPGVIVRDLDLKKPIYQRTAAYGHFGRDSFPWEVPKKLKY

Row | Structure (SMILES) | pIC50
1 | Nc1nc(=O)n([C@@H]2CCCOC2)c2nc([C@@H]3C[C@H]3F)ccc12 (mixture of isomers) [Example 49, 4-amino-7-[(1SR,2RS)-2-fluorocyclopropyl]-1-[(3R)-tetrahydropyran-3-yl]pyrido[2,3-d]pyrimidin-2-one] | 7.85
2 | Cc1ncccc1-n1c(=O)nc(N)c2ccc([C@@H]3C[C@H]3C)nc21 (racemic) [Example 23, 4-amino-7-((1RS,2RS)-2-methylcyclopropyl)-1-(2-methylpyridin-3-yl)pyrido[2,3-d]pyrimidin-2(1H)-one] | 7.74
3 | Nc1nc(=O)n([C@H]2CCC[C@H]2O)c2nc(C3CC3)ccc12 (racemic) [Example 24, 4-amino-7-cyclopropyl-1-((1SR,2RS)-2-hydroxycyclopentyl)pyrido[2,3-d]pyrimidin-2(1H)-one] | 7.77
4 | C[C@@H]1OCC[C@H]1n1c(=O)nc(N)c2ccc(C3CC3)nc21 (racemic) [Example 30, 4-amino-7-cyclopropyl-1-[rac-(2RS,3SR)-2-methyloxolan-3-yl]pyrido[2,3-d]pyrimidin-2-one] | 7.66
5 | Cc1ncccc1-n1c(=O)nc(N)c2ccc([C@H]3C[C@@H]3F)nc21 (racemic) [Example 36, 4-amino-7-[(1RS,2SR)-2-fluorocyclopropyl]-1-(2-methyl-3-pyridyl)pyrido[2,3-d]pyrimidin-2-one] | > 7.89
6 | Cn1nccc1-n1c(=O)nc(N)c2ccc(N3C[C@H]4CC[C@@H]3C4)nc21 (racemic) [Example 57, 4-amino-7-[(1SR,4RS)-3-azabicyclo[2.2.1]heptan-3-yl]-1-(2-methylpyrazol-3-yl)pyrido[2,3-d]pyrimidin-2-one] | 6.82
7 | C[C@@H]1OCCC[C@@H]1n1c(=O)nc(N)c2ccc(C3CC3)nc21 (racemic) [Example 121, 4-amino-7-cyclopropyl-1-[(2SR,3SR)-2-methyltetrahydropyran-3-yl]pyrido[2,3-d]pyrimidin-2-one] | 7.85
8 | C[C@@H]1OCC[C@@H]1n1c(=O)nc(N)c2ccc(C3CC3)nc21 (relative stereo) [Example 89, 4-amino-7-cyclopropyl-1-((cis)-2-methyltetrahydrofuran-3-yl)pyrido[2,3-d]pyrimidin-2(1H)-one] | 7.28
9 | Cc1c(F)cccc1-n1c(=O)nc(N)c2ccc(C3CC3)nc21 (single isomer, unassigned) [Example 103, (+)-4-amino-7-cyclopropyl-1-(3-fluoro-2-methylphenyl)pyrido[2,3-d]pyrimidin-2 (1H)-one] | > 7.89
10 | Cc1c(F)cccc1-n1c(=O)nc(N)c2ccc(C3CC3)nc21 (single isomer, unassigned) [Example 104, (−)-4-amino-7-cyclopropyl-1-(3-fluoro-2-methylphenyl)pyrido[2,3-d]pyrimidin-2 (1H)-one] | 6.96
11 | Nc1nc(=O)n(-c2ccccc2Cl)c2nc(C3CC3)ccc12 (single isomer, unassigned) [Example 114, (+)-4-amino-1-(2-chlorophenyl)-7-cyclopropylpyrido[2,3-d]pyrimidin-2 (1H)-one] | > 7.89
12 | Nc1nc(=O)n(-c2ccccc2Cl)c2nc(C3CC3)ccc12 (single isomer, unassigned) [Example 115, (−)-4-amino-1-(2-chlorophenyl)-7-cyclopropylpyrido[2,3-d]pyrimidin-2 (1H)-one] | 7.14
13 | Nc1nc(=O)n(-c2cccc(F)c2Cl)c2nc(C3CC3)ccc12 (single isomer, unassigned) [Example 116, (+)-4-amino-1-(2-chloro-3-fluorophenyl)-7-cyclopropylpyrido[2,3-d]pyrimidin-2 (1H)-one] | > 7.89
14 | Nc1nc(=O)n(-c2cccc(F)c2Cl)c2nc(C3CC3)ccc12 (single isomer, unassigned) [Example 117, (−)-4-amino-1-(2-chloro-3-fluorophenyl)-7-cyclopropylpyrido[2,3-d]pyrimidin-2 (1H)-one] | 7.11
15 | Nc1nc(=O)n(-c2cccnc2Cl)c2nc(C3CC3)ccc12 (single isomer, unassigned) [Example 135, (+)-4-amino-1-(2-chloropyridin-3-yl)-7-cyclopropylpyrido[2,3-d]pyrimidin-2 (1H)-one] | > 7.89
16 | Nc1nc(=O)n(-c2cccnc2Cl)c2nc(C3CC3)ccc12 (single isomer, unassigned) [Example 136, (−)-4-amino-1-(2-chloropyridin-3-yl)-7-cyclopropylpyrido[2,3-d]pyrimidin-2 (1H)-one] | 6.82
17 | Cc1c(C#N)cccc1-n1c(=O)nc(N)c2ccc(C3CC3)nc21 (single isomer, unassigned) [Example 145, (+)-3-(4-amino-7-cyclopropyl-2-oxopyrido[2,3-d]pyrimidin-1 (2H)-yl)-2-methylbenzonitrile] | > 7.89
18 | Cc1c(C#N)cccc1-n1c(=O)nc(N)c2ccc(C3CC3)nc21 (single isomer, unassigned) [Example 146, (−)-3-(4-amino-7-cyclopropyl-2-oxopyrido[2,3-d]pyrimidin-1 (2H)-yl)-2-methylbenzonitrile] | 7.24
19 | Cc1ccccc1-n1c(=O)nc(N)c2ccc(C3CC3)nc21 [Example 1, 4-amino-7-cyclopropyl-1-(o-tolyl)pyrido[2,3-d]pyrimidin-2(1H)-one] | > 7.89

Row | Structure (SMILES) | pIC50
20 | COc1ccccc1-n1c(=O)nc(N)c2ccc(C3CC3)nc21 [Example 2, 4-amino-7-cyclopropyl-1-(2-methoxyphenyl)pyrido[2,3-d]pyrimidin-2(1H)-one] | > 7.89
21 | Cc1ccccc1-n1c(=O)nc(N)c2ccc(C(C)(C)C)nc21 [Example 3, 4-amino-7-(tert-butyl)-1-(o-tolyl)pyrido[2,3-d]pyrimidin-2(1H)-one] | 7.66
22 | COc1ccccc1-n1c(=O)nc(N)c2ccc(-c3ccccc3)nc21 [Example 4, 4-amino-1-(2-methoxyphenyl)-7-phenylpyrido[2,3-d]pyrimidin-2(1H)-one] | 7.51
23 | Cc1ccccc1-n1c(=O)nc(N)c2ccc(N3CC(F)(F)C3)nc21 [Example 5, 4-amino-7-(3,3-difluoroazetidin-1-yl)-1-(o-tolyl)pyrido[2,3-d]pyrimidin-2(1H)-one] | 7.66
24 | Nc1nc(=O)n(C2CCOC2)c2nc(C3CC3)ccc12 (centres unmarked) [Example 6, 4-amino-7-cyclopropyl-1-(tetrahydrofuran-3-yl)pyrido[2,3-d]pyrimidin-2(1H)-one] | 7.55
25 | Cc1ncccc1-n1c(=O)nc(N)c2ccc(C3CC3)nc21 [Example 7, 4-amino-7-cyclopropyl-1-(2-methylpyridin-3-yl)pyrido[2,3-d]pyrimidin-2(1H)-one] | > 7.89
26 | Cc1ccccc1-n1c(=O)nc(N)c2ccc(C3CC3)cc21 [Example 8, 4-amino-7-cyclopropyl-1-(o-tolyl)quinazolin-2 (1H)-one] | > 7.89
27 | COc1ncccc1-n1c(=O)nc(N)c2ccc(C3CC3)nc21 [Example 9, 4-amino-7-cyclopropyl-1-(2-methoxypyridin-3-yl)pyrido[2,3-d]pyrimidin-2(1H)-one] | > 7.89
28 | Cc1ncccc1-n1c(=O)nc(N)c2cc(F)c(C3CC3)nc21 [Example 10, 4-amino-7-cyclopropyl-6-fluoro-1-(2-methylpyridin-3-yl)pyrido[2,3-d]pyrimidin-2(1H)-one] | > 7.89
29 | N#Cc1ncccc1-n1c(=O)nc(N)c2ccc(C3CC3)nc21 [Example 11, 3-(4-amino-7-cyclopropyl-2-oxopyrido[2,3-d]pyrimidin-1(2H)-yl)picolinonitrile] | > 7.89
30 | Nc1nc(=O)n(C2CCCOC2)c2nc(C3CC3)ccc12 (centres unmarked) [Example 12, 4-amino-7-cyclopropyl-1-(oxan-3-yl)pyrido[2,3-d]pyrimidin-2-one] | > 7.89
31 | CC(C1CCOC1)n1c(=O)nc(N)c2ccc(C3CC3)nc21 (centres unmarked) [Example 13, 4-amino-7-cyclopropyl-1-[1-(oxolan-3-yl)ethyl]pyrido[2,3-d]pyrimidin-2-one] | 7.64
32 | COc1c(F)cccc1-n1c(=O)nc(N)c2ccc(C3CC3)nc21 [Example 14, 4-amino-7-cyclopropyl-1-(3-fluoro-2-methoxyphenyl)pyrido[2,3-d]pyrimidin-2(1H)-one] | 7.57
33 | Cc1c(C#N)cccc1-n1c(=O)nc(N)c2ccc(C3CC3)nc21 [Example 15, 3-(4-amino-7-cyclopropyl-2-oxopyrido[2,3-d]pyrimidin-1(2H)-yl)-2-methylbenzonitrile] | > 7.89
34 | Cc1ncccc1-n1c(=O)nc(N)c2ccc(C(C)C)nc21 [Example 16, 4-amino-1-(2-methylpyridin-3-yl)-7-propan-2-ylpyrido[2,3-d]pyrimidin-2-one] | > 7.89
35 | Nc1nc(=O)n(-c2cccc3c2CCO3)c2nc(C3CC3)ccc12 [Example 17, 4-amino-7-cyclopropyl-1-(2,3-dihydrobenzofuran-4-yl)pyrido[2,3-d]pyrimidin-2(1H)-one] | 7.02
36 | Cc1ncccc1-n1c(=O)nc(N)c2cc(Cl)c(C3CC3)nc21 [Example 18, 4-amino-6-chloro-7-cyclopropyl-1-(2-methylpyridin-3-yl)pyrido[2,3-d]pyrimidin-2(1H)-one] | > 7.89
37 | COc1c(C#N)cccc1-n1c(=O)nc(N)c2ccc(C3CC3)nc21 [Example 19, 3-(4-amino-7-cyclopropyl-2-oxopyrido[2,3-d]pyrimidin-1(2H)-yl)-2-methoxybenzonitrile] | > 7.89
38 | CCOc1c(C#N)cccc1-n1c(=O)nc(N)c2ccc(C3CC3)nc21 [Example 20, 3-(4-amino-7-cyclopropyl-2-oxopyrido[2,3-d]pyrimidin-1(2H)-yl)-2-ethoxybenzonitrile] | 7.82
